Measurements: patent publication US20160375006A1, “USES OF PARALOG-SELECTIVE INHIBITORS OF GSK3 KINASES” (priority 2012, published 2016)
Where two headings read alike, the source gives them in different places.

Legend:
GSK3α [1] = target: T1, GSK3α (Homo sapiens, UniProt P49840); settings: for IC50: read-out: Caliper Assay, GSK3α IC50
GSK3β [2] = target: T2, GSK3β (Homo sapiens, UniProt P49841); experiment: biochemical
Procedure: (§1) Reactions were terminated by the addition of 10 mM EDTA. Substrate and product were separated electrophoretically and fluorescence intensity of the substrate and product was determined by Labchip EZ Reader II (Caliper Life Sciences, MA). The kinase activity was measured as percent conversion. The reactions were performed in duplicate for each sample. […] The results were analyzed by Genedata Assay Analyzer. The percent inhibition was plotted against the compound concentration and the IC50 value was determined from the logistic dose-response curve fitting.

GSK3α [3] = target: T1, GSK3α; experiment: biochemical
GSK3β [4] = target: T2, GSK3β
Procedure: as §1

[5] = Caliper assay, GSK3α over GSK3β
[6] = Caliper assay, GSK3β over GSK3α

T2 sequence (P49841 whole entry): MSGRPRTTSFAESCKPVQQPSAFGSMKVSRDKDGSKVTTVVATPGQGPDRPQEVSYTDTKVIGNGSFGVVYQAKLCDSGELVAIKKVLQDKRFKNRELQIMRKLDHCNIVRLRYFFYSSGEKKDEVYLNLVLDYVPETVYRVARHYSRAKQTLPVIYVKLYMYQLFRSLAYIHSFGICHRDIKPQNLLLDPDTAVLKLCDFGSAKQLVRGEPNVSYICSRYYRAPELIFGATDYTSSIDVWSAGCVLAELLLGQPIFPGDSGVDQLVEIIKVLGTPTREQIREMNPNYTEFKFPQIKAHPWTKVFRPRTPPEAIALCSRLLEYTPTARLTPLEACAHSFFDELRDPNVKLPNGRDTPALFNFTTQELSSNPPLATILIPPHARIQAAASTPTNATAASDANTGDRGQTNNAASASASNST
T1 sequence (P49840 whole entry): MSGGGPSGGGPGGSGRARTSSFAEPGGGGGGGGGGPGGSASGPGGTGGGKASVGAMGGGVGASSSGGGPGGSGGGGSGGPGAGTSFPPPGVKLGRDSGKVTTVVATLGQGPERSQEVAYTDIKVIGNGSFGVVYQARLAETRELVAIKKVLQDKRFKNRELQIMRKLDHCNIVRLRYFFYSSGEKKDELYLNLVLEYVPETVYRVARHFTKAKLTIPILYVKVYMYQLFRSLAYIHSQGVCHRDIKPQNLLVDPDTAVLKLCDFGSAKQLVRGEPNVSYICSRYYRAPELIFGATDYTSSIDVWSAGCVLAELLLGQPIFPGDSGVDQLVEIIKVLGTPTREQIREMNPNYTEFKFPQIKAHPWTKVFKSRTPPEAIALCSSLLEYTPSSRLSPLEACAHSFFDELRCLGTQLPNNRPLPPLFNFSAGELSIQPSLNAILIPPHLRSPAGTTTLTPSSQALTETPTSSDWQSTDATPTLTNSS

| Structure (SMILES) | IC50 (GSK3β [2]) | IC50 (GSK3α [3]) | GSK3β fold selectivity (GSK3β [4]; [6]) | other results |
| --- | --- | --- | --- | --- |
| CC1(C)CC(=O)C2=C(C1)Nc1n[nH]cc1C2(C)c1cccc(F)c1 (racemic) [Compound 201] | 901 nM | 239 nM |  | GSK3α fold selectivity (GSK3α [1]; [5]): 3.8 fold |
| CC1(C)CC(=O)C2=C(C1)Nc1n[nH]cc1C2(C)c1cccc(C(F)(F)F)c1 (racemic) [Compound 206] | 4 nM | 0.4 nM |  | GSK3α fold selectivity (GSK3α [1]; [5]): 10.0 fold |
| CCC1(c2cccc(Cl)c2)C2=C(CC(C)(C)CC2=O)Nc2n[nH]cc21 (racemic) [Compound 218] | 312 nM | 54 nM |  | GSK3α fold selectivity (GSK3α [1]; [5]): 5.8 fold |
| CCC1(c2cccc(C(C)(C)C)c2)C2=C(CC(C)(C)CC2=O)Nc2n[nH]cc21 (racemic) [Compound 225] | 86 nM | 13 nM |  | GSK3α fold selectivity (GSK3α [1]; [5]): 6.6 fold |
| CCC(C)(C)Cc1[nH]nc2c1[C@@](C)(c1ccccc1)C1=C(CC(C)(C)CC1=O)N2 (stereo in doubt) [Compound 292] | 3020 nM | 12000 nM | 4.0 fold |  |
| CCC(C)(C)Cc1[nH]nc2c1[C@@]1(CCc3cc(F)ccc31)C1=C(CC(C)(C)CC1=O)N2 (stereo in doubt) [Compound 293] | 127 nM | 1440 nM | 11.3 fold |  |
| CCC(C)(C)Cc1[nH]nc2c1[C@]1(CCc3cc(F)ccc31)C1=C(CC(C)(C)CC1=O)N2 (stereo in doubt) [Compound 294] | 785 nM | 4760 nM | 6.1 fold |  |
| CC(C)c1[nH]nc2c1[C@](C)(c1ccccc1)C1=C(CC(C)(C)CC1=O)N2 (stereo in doubt) [Compound 297] | 24 nM | 56 nM | 2.3 fold |  |
| CC(C)c1[nH]nc2c1[C@@](C)(c1ccccc1)C1=C(CC(C)(C)CC1=O)N2 (stereo in doubt) [Compound 298] | 229 nM | 479 nM | 2.1 fold |  |
| CC1(C)CC(=O)C2=C(C1)Nc1n[nH]c(C3CCCC3)c1[C@]2(C)c1ccccc1 (stereo in doubt) [Compound 301] | 372 nM | 1060 nM | 2.9 fold |  |
| CC1(C)CC(=O)C2=C(C1)Nc1n[nH]c(C3CCCC3)c1[C@@]2(C)c1ccccc1 (stereo in doubt) [Compound 302] | 5280 nM | 27500 nM | 5.2 fold |  |
| CC1(C)CC(=O)C2=C(C1)Nc1n[nH]c(C3CCCCC3)c1[C@]2(C)c1ccccc1 (stereo in doubt) [Compound 304] | 977 nM | 2380 nM | 2.4 fold |  |
| CC1(C)CC(=O)C2=C(C1)Nc1n[nH]c(C3CCCCC3)c1[C@@]2(C)c1ccccc1 (stereo in doubt) [Compound 305] | 5060 nM | 17400 nM | 3.4 fold |  |
| CC(C)Cc1[nH]nc2c1[C@](C)(c1ccccc1)C1=C(CC(C)(C)CC1=O)N2 (stereo in doubt) [Compound 307] | 41 nM | 237 nM | 5.8 fold |  |
| CC(C)Cc1[nH]nc2c1[C@@](C)(c1ccccc1)C1=C(CC(C)(C)CC1=O)N2 (stereo in doubt) [Compound 308] | 4040 nM | 22300 nM | 5.5 fold |  |
| CC(C)c1[nH]nc2c1[C@](C)(c1ccccc1F)C1=C(CC(C)(C)CC1=O)N2 (stereo in doubt) [Compound 312] | 66 nM | 386 nM | 5.8 fold |  |
| CC(C)c1[nH]nc2c1[C@@](C)(c1ccccc1F)C1=C(CC(C)(C)CC1=O)N2 (stereo in doubt) [Compound 313] | 385 nM | 4340 nM | 11.3 fold |  |
| CC(C)c1[nH]nc2c1[C@](C)(c1ccccc1Cl)C1=C(CC(C)(C)CC1=O)N2 (stereo in doubt) [Compound 316] | 703 nM | 6280 nM | 8.9 fold |  |
| CC(C)c1[nH]nc2c1[C@@](C)(c1ccccc1Cl)C1=C(CC(C)(C)CC1=O)N2 (stereo in doubt) [Compound 317] | 3430 nM | 12900 nM | 3.8 fold |  |
| CC1(C)CC(=O)C2=C(C1)Nc1n[nH]c(Cc3ccccc3)c1[C@]2(C)c1ccccc1 (stereo in doubt) [Compound 327] | 185 nM | 607 nM | 3.3 fold |  |
| CC1(C)CC(=O)C2=C(C1)Nc1n[nH]c(C(F)(F)F)c1C2c1cccc(OC(F)(F)F)c1 (stereo not drawn) [Compound 57] | < 100 nM |  |  | IC50 (GSK3α [1]): < 100 nM |
| Cc1[nH]nc2c1[C@@](c1ccccc1)(C(F)(F)F)C1=C(CC(C)(C)CC1=O)N2 [Compound 93, 1,6,6-trimethyl-9-phenyl-9-(trifluoromethyl)-5,6,7,9-tetrahydro-2H-pyrazolo[3,4-b]quinolin-8(4H)-one] |  |  |  | IC50 (GSK3α [1]): < 100 nM |
| Cc1[nH]nc2c1[C@@](C)(c1cccc(C#N)c1)C1=C(CC(C)(C)CC1=O)N2 [Compound 97, 3-(1,6,6,9-tetramethyl-8-oxo-4,5,6,7,8,9-hexahydro-2H-pyrazolo[3,4-b]quinolin-9-yl)benzonitrile] |  |  |  | GSK3α fold selectivity (GSK3α [1]; GSK3α over GSK3β): 5.9 fold |
| Cc1[nH]nc2c1C1(CCCC1)C1=C(CC(C)(C)CC1=O)N2 [Compound 102] |  |  |  | GSK3α fold selectivity (GSK3α [1]; GSK3α over GSK3β): 1.9 fold |

| Structure (SMILES) | IC50 (GSK3β [2]) | IC50 (GSK3α [3]) | GSK3β fold selectivity (GSK3β [4]; [6]) | other results |
| --- | --- | --- | --- | --- |
| COC(=O)c1[nH]nc2c1C(C)(c1ccccc1)C1=C(CC(C)(C)CC1=O)N2 (stereo not drawn) [Compound 104] |  |  |  | GSK3α fold selectivity (GSK3α [1]; GSK3α over GSK3β): 1.5 fold |
| CC1(C)CC(=O)C2=C(C1)Nc1n[nH]c(Cl)c1C2(C)c1ccccc1 (stereo not drawn) [Compound 110] |  |  |  | GSK3α fold selectivity (GSK3α [1]; GSK3α over GSK3β): 1.8 fold |
| CC1(C)CC(=O)C2=C(C1)Nc1n[nH]c(Br)c1C2(C)c1ccccc1 (stereo not drawn) [Compound 111] |  |  |  | GSK3α fold selectivity (GSK3α [1]; GSK3α over GSK3β): 3.1 fold |
| CC1(C)CC(=O)C2=C(C1)Nc1n[nH]c(C3CC3)c1C2(C)c1ccccc1F (stereo not drawn) [Compound 116] |  |  |  | GSK3α fold selectivity (GSK3α [1]; GSK3α over GSK3β): 1.1 fold |
| CC1(C)CC(=O)C2=C(C1)Nc1n[nH]c(C3CC3)c1C2(C)c1cccc(C(F)(F)F)c1 (stereo not drawn) [Compound 118] |  |  |  | GSK3α fold selectivity (GSK3α [1]): 1.1 fold |
| Cc1[nH]nc2c1[C@](C)(c1ccccc1)C1=C(CC(C)(C)CC1=O)N2 [Compound 123] | < 100 nM |  |  | GSK3α fold selectivity (GSK3α [1]; GSK3α over GSK3β): 3.6 fold |
| CC1(C)CC(=O)C2=C(C1)Nc1n[nH]c(C3CC(F)(F)C3)c1[C@@]21COc2ccccc21 [Compound 256] | 2 nM | 13 nM |  | GSK3β fold selectivity (GSK3β [4]): 6.5 fold |
| CC1(C)CC(=O)C2=C(C1)Nc1n[nH]c(C3CC(F)(F)C3)c1[C@]21COc2ccccc21 [Compound 257] | 21 nM | 339 nM |  | GSK3β fold selectivity (GSK3β [4]): 16.1 fold |
| CC1(C)CC(=O)C2=C(C1)Nc1n[nH]c(C3CC(F)(F)C3)c1[C@@]21CCc2ccccc21 [Compound 259] | 20 nM | 87 nM |  | GSK3β fold selectivity (GSK3β [4]): 4.4 fold |
| CC1(C)CC(=O)C2=C(C1)Nc1n[nH]c(C3CC(F)(F)C3)c1[C@]21CCc2ccccc21 [Compound 260] | 53 nM | 444 nM |  | GSK3β fold selectivity (GSK3β [4]): 8.4 fold |
| CC1(C)CC(=O)C2=C(C1)Nc1n[nH]c(C3CC(F)(F)C3)c1[C@@]21CCc2c(F)cccc21 [Compound 262] | 124 nM | 542 nM |  | GSK3β fold selectivity (GSK3β [4]): 4.4 fold |
| CC1(C)CC(=O)C2=C(C1)Nc1n[nH]c(C3CC(F)(F)C3)c1[C@@]21CCc2cc(F)ccc21 [Compound 265] | 81 nM | 710 nM |  | GSK3β fold selectivity (GSK3β [4]): 8.8 fold |
| CC1(C)CC(=O)C2=C(C1)Nc1n[nH]c(C3CC(F)(F)C3)c1[C@]21CCc2cc(F)ccc21 [Compound 266] | 38 nM | 342 nM |  | GSK3β fold selectivity (GSK3β [4]): 9.0 fold |
| CC1(C)CC(=O)C2=C(C1)Nc1n[nH]c(C3CC(F)(F)C3)c1C21CCCc2ccccc21 (stereo not drawn) [Compound 267] | 38 nM | 342 nM |  | GSK3β fold selectivity (GSK3β [4]): 9.0 fold |
| CC1(C)CC(=O)C2=C(C1)Nc1n[nH]c(C3CC(F)(F)C3)c1[C@@]21CCOc2ccccc21 [Compound 269] | 18 nM | 164 nM |  | GSK3β fold selectivity (GSK3β [4]): 9.1 fold |
| CC1(C)CC(=O)C2=C(C1)Nc1n[nH]c(C3CC(F)(F)C3)c1[C@]21CCOc2ccccc21 [Compound 270] | 210 nM | 1630 nM |  | GSK3β fold selectivity (GSK3β [4]): 7.8 fold |
| CCC1(c2ccccc2)C2=C(CC(C)(C)CC2=O)Nc2n[nH]c(CC(C)(C)C)c21 (stereo not drawn) [Compound 274] | 100 nM | 340 nM | 3.4 fold |  |
| CN1C(=O)C2(C3=C(CC(C)(C)CC3=O)Nc3n[nH]c(CC(C)(C)C)c32)c2ccccc21 (stereo not drawn) [Compound 287] | 939 nM | 8300 nM | 8.8 fold |  |
| COc1ccccc1[C@H]1C2=C(CC(C)(C)CC2=O)Nc2n[nH]c(C(C)C)c21 [Compound 295] | 57 nM | 462 nM | 8.1 fold |  |
| CC(C)c1[nH]nc2c1C(C)(c1ccccc1)C1=C(CC(C)(C)CC1=O)N2 (stereo not drawn) [Compound 296] | 76 nM | 241 nM | 3.2 fold |  |
| CCC(C)c1[nH]nc2c1C(C)(c1ccccc1)C1=C(CC(C)(C)CC1=O)N2 (stereo not drawn) [Compound 299] | 90 nM | 277 nM | 3.1 fold |  |
| CCc1ccccc1[C@@H]1C2=C(CC(C)(C)CC2=O)Nc2n[nH]c(C(C)C)c21 [Compound 322] | 42 nM | 462 nM | 11.0 fold |  |
| COc1cc(F)ccc1[C@H]1C2=C(CC(C)(C)CC2=O)Nc2n[nH]c(C(C)C)c21 [Compound 323] | 20 nM | 271 nM | 13.6 fold |  |
| COc1cc(F)ccc1[C@@H]1C2=C(CC(C)(C)CC2=O)Nc2n[nH]c(C(C)C)c21 [Compound 324] | 332 nM | 920 nM | 2.8 fold |  |
